According to US20080085893A1, “MATRIX METALLOPROTEASE INHIBITORS” (priority 2006, published 2008):
pIC50: −log10 of the molar value. “And” between values parts separate entries of the source, which are not always exact repeats. Identical values can stand only once.

Key:
Format in all cases: biochemical
[1] = target: T1, human MMP-1 (amino acids 100-262) (Homo sapiens, UniProt P03956); assay: MMP dose response assay for determining IC50, MMP-1; conditions: recombinant catalytic domain, fluorescent-quench substrate 100 nM
T1 construct: human MMP-1 (amino acids 100-262); made in house
T1 sequence (P03956 100-262): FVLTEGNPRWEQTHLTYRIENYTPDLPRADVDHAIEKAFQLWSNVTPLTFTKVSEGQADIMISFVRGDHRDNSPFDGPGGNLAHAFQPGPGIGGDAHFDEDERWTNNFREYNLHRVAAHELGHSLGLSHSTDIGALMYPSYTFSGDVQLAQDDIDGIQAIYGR
Experimental: MMP Dose Response Assay for Determining IC50
The following method was used for determining IC50 values of different inhibitor compounds against multiple MMP enzymes. Frozen stocks of recombinantly produced MMPs were prepared in assay buffer (50 mM HEPES pH 7.4, 10 mM CaCl2, 0.05% Brij-35). […] Enzyme concentrations in the assay were determined empirically and set such that proteolytic activity was maintained in a linear range over the time-course of the experiment. […] Each concentration for each test compound was tested in triplicate. MMP enzymes were equilibrated with compounds for 1 hour at room temperature, then a fluorescent-quench substrate (Acetyl-Cys(Eu)-Pro-Leu-Gly-Leu-Lys-(QSY7)-Ala-Arg-amide) was added to a final concentration of 100 nM. […] Data was analyzed by first calculating average background value from wells that contained only substrate, and this value was subtracted from the entire plate. The 100%, or maximum value, was determined by averaging control wells that contained enzyme, substrate and DMSO. For each well, the percent of control was calculated by dividing the well value by the average DMSO value obtained above.

[2] = target: T2, human MMP-2 (amino acids 1-660) (Homo sapiens, UniProt P08253); assay: MMP dose response assay for determining IC50, MMP-2; conditions: recombinant enzyme, fluorescent-quench substrate 100 nM; read-out: MMP-2
T2 construct: human MMP-2 (amino acids 1-660); made in house
T2 sequence (P08253 110-660): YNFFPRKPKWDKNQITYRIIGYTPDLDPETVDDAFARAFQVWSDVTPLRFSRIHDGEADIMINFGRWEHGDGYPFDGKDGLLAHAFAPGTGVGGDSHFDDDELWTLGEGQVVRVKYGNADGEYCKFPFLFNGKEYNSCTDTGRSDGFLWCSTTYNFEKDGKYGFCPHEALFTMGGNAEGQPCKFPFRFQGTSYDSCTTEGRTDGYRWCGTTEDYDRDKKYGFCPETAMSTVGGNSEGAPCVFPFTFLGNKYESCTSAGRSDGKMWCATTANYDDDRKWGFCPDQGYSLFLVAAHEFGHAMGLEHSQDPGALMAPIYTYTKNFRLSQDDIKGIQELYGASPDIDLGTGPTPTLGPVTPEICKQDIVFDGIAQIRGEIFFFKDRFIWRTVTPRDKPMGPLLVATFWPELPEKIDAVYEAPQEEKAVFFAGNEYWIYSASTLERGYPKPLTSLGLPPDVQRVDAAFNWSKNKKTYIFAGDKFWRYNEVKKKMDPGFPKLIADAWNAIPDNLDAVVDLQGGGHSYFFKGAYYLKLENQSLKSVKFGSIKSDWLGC
Outline: (§1)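 Recombinant enzymes in 50 mM HEPES pH 7.4, 10 mM CaCl2, 0.05% Brij-35, at empirically set levels keeping activity linear, preincubated 1 h at room temperature with compound in triplicate. Fluorescence-quench peptide substrate (Eu/QSY7) added at 100 nM final. Background-subtracted signal expressed as percent of DMSO control for IC50.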

[3] = target: T3, human MMP-9 (amino acids 107-446) (Homo sapiens, UniProt P14780); assay: MMP dose response assay for determining IC50, MMP-9; conditions: recombinant enzyme, fluorescent-quench substrate 100 nM; read-out: MMP-9
T3 construct: human MMP-9 (amino acids 107-446); made in house
Outline: as §1

T3 sequence (P14780 107-446): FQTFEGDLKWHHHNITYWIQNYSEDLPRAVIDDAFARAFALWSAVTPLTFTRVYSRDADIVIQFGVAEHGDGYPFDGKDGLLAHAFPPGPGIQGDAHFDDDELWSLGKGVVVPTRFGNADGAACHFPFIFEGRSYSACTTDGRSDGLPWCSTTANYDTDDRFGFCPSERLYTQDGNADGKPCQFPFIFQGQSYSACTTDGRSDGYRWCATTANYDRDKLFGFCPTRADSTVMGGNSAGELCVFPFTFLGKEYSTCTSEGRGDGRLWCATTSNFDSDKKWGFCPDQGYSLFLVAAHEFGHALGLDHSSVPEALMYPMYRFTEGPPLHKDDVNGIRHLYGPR

| SMILES | pIC50 [1] | pIC50 [2] | pIC50 [3] |
| --- | --- | --- | --- |
| Cc1ccc(Oc2ccc(N(C[C@H](N[C@H](C)c3ccccc3)C(=O)NO)S(C)(=O)=O)cc2)cc1 [Example 46, N-Hydroxy (2S)-3-{N-[4-(4-methylphenoxy)phenyl],N-methanesulfonylamino}-2-[(1R)-1-phenyl-1-ethyl]aminopropionamide] | < 5.00 | 7.62 | 8.81 |
| Cc1ccc(Oc2ccc(N(C[C@H](N[C@@H](C)c3ccccc3)C(=O)NO)S(C)(=O)=O)cc2)cc1 [Example 47, N-Hydroxy (2S)-3-{N-[4-(4-methylphenoxy)phenyl],N-methanesulfonylamino}-2-[(1S)-1-phenyl-1-ethyl]aminopropionamide] | 5.17 | 7.93 | 9.27 |
| Cc1ccc(Oc2ccc(N(C[C@H](Nc3ccc4ccccc4c3)C(=O)NO)S(C)(=O)=O)cc2)cc1 [Example 60, N-Hydroxy (2S)-3-{N-[4-(4-methylphenoxy)phenyl],N-methanesulfonylamino}-2-(naphthylen-2-yl)aminopropionamide] | 5.22 and < 5.00 | 5.84 and 6.06 | 7.06 and 7.03 |
| CS(=O)(=O)N(C[C@H](O)C(=O)NO)c1ccc(C#Cc2ccc(Cl)cc2)cc1 [Example 62, N-Hydroxy (2S)-2-hydroxy-3-{N-[4-(4-chlorophenylacetylene)phenyl],N-methanesulfonylamino}propionamide] | < 5.00 | 7.25 | 7.33 |
| CS(=O)(=O)N(C[C@H](O)C(=O)NO)c1ccc(C#Cc2cccs2)cc1 [Example 64, N-Hydroxy (2S)-2-hydroxy-3-{N-[4-(4-thiophen-2-ylacetylene)phenyl],N-methanesulfonylamino}propionamide] | < 5.00 | 6.99 | 6.11 |
| CS(=O)(=O)N(C[C@@H](C(=O)NO)N1CCN(C(=O)OCc2ccccc2)CC1)c1ccc(Oc2ccc(C(F)(F)F)cc2)cc1 [Example 67, N-Hydroxy (2S)-2-[(4-benzyloxycarbonyl)piperazin-1-yl]-3-{N-[4-(4-trifluoromethylphenoxy)phenyl],N-methanesulfonylamino}propionamide] | < 5.00 | 8.32 and 8.36 | 8.19 and 8.07 |
| CC(C)N(CCNC(=O)OCc1ccccc1)[C@@H](CN(c1ccc(Oc2ccc(C(F)(F)F)cc2)cc1)S(C)(=O)=O)C(=O)NO [Example 68] | < 5.00 | 6.58 | 7.54 |
| CC(C)N(Cc1ccccc1)[C@@H](CN(c1ccc(Oc2ccc(C(F)(F)F)cc2)cc1)S(C)(=O)=O)C(=O)NO [Example 69, N-Hydroxy (2S)-2-[N-benzyl-N-(2-propyl)amino]-3-{N-[4-(4-trifluoromethylphenoxy)phenyl],N-methanesulfonylamino}propionamide] | < 5.00 | 6.55 | 7.17 |
| CS(=O)(=O)N(C[C@@H](C(=O)NO)N1CCS(=O)(=O)CC1)c1ccc(Oc2ccc(C(F)(F)F)cc2)cc1 [Example 70, N-Hydroxy (2S)-2-[1,1-bis(oxo)thiomorpholin-4-yl]-3-{N-[4-(4-trifluoromethylphenoxy)phenyl],N-methanesulfonylamino}propionamide] | < 5.00 | 8.33 and 8.30 and 7.80 | 8.72 and 8.82 and 8.20 |
| CS(=O)(=O)N(C[C@@H](C(=O)NO)N1CCC(O)CC1)c1ccc(Oc2ccc(C(F)(F)F)cc2)cc1 [Example 71, N-Hydroxy (2S)-2-(4-hydroxypiperidin-1-yl)-3-{N-[4-(4-trifluoromethylphenoxy)phenyl],N-methanesulfonylamino}propionamide] | 5.07 and < 5.00 | 8.80 and 8.31 and 7.97 | 9.18 and 8.84 and 8.45 |
| CS(=O)(=O)N(C[C@@H](C(=O)NO)N1Cc2ccccc2C1)c1ccc(Oc2ccc(C(F)(F)F)cc2)cc1 [Example 72, N-Hydroxy (2S)-2-(isoindolin-2-yl)-3-{N-[4-(4-trifluoromethylphenoxy)phenyl],N-methanesulfonylamino}propionamide] | < 5.00 | 8.42 and 8.99 | 9.14 and 9.77 |
| CN(C)[C@H]1CCN([C@@H](CN(c2ccc(Oc3ccc(C(F)(F)F)cc3)cc2)S(C)(=O)=O)C(=O)NO)C1 [Example 74, N-Hydroxy (2S)-2-[(3S)-3-N,N-dimethylaminopyrrolidin-1-yl]-3-{N-[4-(4-trifluoromethylphenoxy)phenyl],N-methanesulfonylamino}propionamide] | < 5.00 | 7.75 | 8.41 |
| CN(C)[C@@H]1CCN([C@@H](CN(c2ccc(Oc3ccc(C(F)(F)F)cc3)cc2)S(C)(=O)=O)C(=O)NO)C1 [Example 75, N-Hydroxy (2S)-2-[(3R)-3-N,N-dimethylaminopyrrolidin-1-yl]-3-{N-[4-(4-trifluoromethylphenoxy)phenyl],N-methanesulfonylamino}propionamide] | < 5.00 | 7.82 and 7.67 | 8.66 and 8.50 |
| CS(=O)(=O)N(C[C@@H](C(=O)NO)N1CCC(c2ccccc2)CC1)c1ccc(Oc2ccc(C(F)(F)F)cc2)cc1 [Example 76, N-Hydroxy (2S)-3-{N-[4-(4-trifluoromethylphenoxy)phenyl],N-methanesulfonylamino}-2-(4-phenylpiperidin-1-yl)propionamide] | < 5.00 | 7.33 | 7.77 |
| CS(=O)(=O)N(C[C@@H](C(=O)NO)N1CCN(c2ccc(Cl)cc2)CC1)c1ccc(Oc2ccc(C(F)(F)F)cc2)cc1 [Example 77, N-Hydroxy (2S)-2-[4-(4-chlorophenyl)piperazin-1-yl]-3-{N-[4-(4-trifluoromethylphenoxy)phenyl],N-methanesulfonylamino}propionamide] | < 5.00 | 6.92 | 6.59 |
| CS(=O)(=O)N(C[C@H](NCCc1c[nH]c2ccccc12)C(=O)NO)c1ccc(Oc2ccc(C(F)(F)F)cc2)cc1 [Example 78] | < 5.00 | 6.50 | 6.94 |
| CS(=O)(=O)N(C[C@@H](C(=O)NO)N1CCC(O)(c2ccc(Br)cc2)CC1)c1ccc(Oc2ccc(C(F)(F)F)cc2)cc1 [Example 79, N-Hydroxy (2S)-2-[4-(4-bromophenyl)-4-hydroxypiperidin-1-yl]-3-{N-[4-(4-trifluoromethylphenoxy)phenyl],N-methanesulfonylamino}propionamide] | < 5.00 | 7.41 | 7.43 |
| CC(C)N(CCN1C(=O)N(C)C(C)(C)C1=O)[C@@H](CN(c1ccc(Oc2ccc(C(F)(F)F)cc2)cc1)S(C)(=O)=O)C(=O)NO [Example 80, N-Hydroxy (2S)-2-{N-(2-propyl),N-[2-(1,5,5-trimethylhydantoin-3-yl)ethyl]amino}-3-{N-[4-(4-trifluoromethylphenoxy)phenyl]-N-methanesulfonylamino}propionamide] | < 5.00 | 7.61 | 8.57 |
| COC[C@H]1CCCN1[C@@H](CN(c1ccc(Oc2ccc(C(F)(F)F)cc2)cc1)S(C)(=O)=O)C(=O)NO [Example 81, N-Hydroxy (2S)-2-[(2R)-2-methoxymethylpyrrolidin-1-yl]-3-{N-[4-(4-trifluoromethylphenoxy)phenyl],N-methanesulfonylamino}propionamide] | < 5.00 | 7.85 | 8.50 |
| COC[C@@H]1CCCN1[C@@H](CN(c1ccc(Oc2ccc(C(F)(F)F)cc2)cc1)S(C)(=O)=O)C(=O)NO [Example 82, N-Hydroxy (2S)-2-[(2S)-2-methoxymethylpyrrolidin-1-yl]-3-{N-[4-(4-trifluoromethylphenoxy)phenyl],N-methanesulfonylamino}propionamide] | < 5.00 | 7.95 | 8.14 |
